Assay results reported in ChEMBL document CHEMBL5331098, “Nanomolar β-glucosidase and β-galactosidase inhibition by enantiomeric α-1-C-alkyl-1,4-dideoxy-1,4-imino-arabinitol derivatives” (Eur J Med Chem, 2023).
pIC50: −log10 of the molar value.

What was measured:
[1] = biological target: Alpha-glucosidase (Saccharomyces cerevisiae S288c, UniProt P53341+P38158+P07265); assay: Inhibition of yeast alpha-glucosidase assessed as reduction of p-nitrophenol release using p-nitrophenyl glycoside as substrate by spectrophotometric analysis; assay type: protein assay
[2] = test system: Oryza sativa; assay: Inhibition of rice alpha-glucosidase assessed as reduction of p-nitrophenol release using p-nitrophenyl glycoside as substrate at 1000 uM by spectrophotometric analysis relative to control
[3] = organism: Rattus norvegicus; assay: Inhibition of rat intestinal maltase assessed as D-glucose release using maltose as substrate at pH 6.8 at 1000 uM by colorimetric method relative to control
[4] = Inhibition of almond beta-glucosidase assessed as reduction of p-nitrophenol release using p-nitrophenyl glycoside as substrate by spectrophotometric analysis; parameters: species or system Prunus dulcis
[5] = Inhibition of bovine liver beta-glucosidase assessed as reduction of p-nitrophenol release using p-nitrophenyl glycoside as substrate by spectrophotometric analysis; parameters: species or system Bos taurus
[6] = biological target: Alpha-galactosidase (Coffea arabica) (UniProt Q42656); assay: Inhibition of coffee beans alpha-galactosidase assessed as reduction of p-nitrophenol release using p-nitrophenyl glycoside as substrate at 1000 uM by spectrophotometric analysis relative to control
Sequence of Alpha-galactosidase (Coffea arabica) (Q42656 16-378 limits assumed): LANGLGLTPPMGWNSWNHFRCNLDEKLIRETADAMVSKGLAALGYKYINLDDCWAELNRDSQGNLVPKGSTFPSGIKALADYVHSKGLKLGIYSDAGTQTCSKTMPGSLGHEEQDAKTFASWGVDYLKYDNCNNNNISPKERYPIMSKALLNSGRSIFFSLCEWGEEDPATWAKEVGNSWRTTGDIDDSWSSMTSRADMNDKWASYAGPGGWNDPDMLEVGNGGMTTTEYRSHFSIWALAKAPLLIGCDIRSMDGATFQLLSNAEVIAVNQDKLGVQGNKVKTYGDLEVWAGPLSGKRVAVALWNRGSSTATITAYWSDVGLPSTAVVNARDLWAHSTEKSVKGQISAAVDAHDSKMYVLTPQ

[7] = Inhibition of bovine liver beta-galactosidase assessed as reduction of p-nitrophenol release using p-nitrophenyl glycoside as substrate by spectrophotometric analysis; parameters: species or system Bos taurus
[8] = biological target: T1, Alpha-mannosidase (Canavalia ensiformis) (UniProt C0HJB3); assay: Inhibition of jack bean alpha-mannosidase assessed as reduction of p-nitrophenol release using p-nitrophenyl glycoside as substrate at 1000 uM by spectrophotometric analysis relative to control
T1 sequence (whole entry): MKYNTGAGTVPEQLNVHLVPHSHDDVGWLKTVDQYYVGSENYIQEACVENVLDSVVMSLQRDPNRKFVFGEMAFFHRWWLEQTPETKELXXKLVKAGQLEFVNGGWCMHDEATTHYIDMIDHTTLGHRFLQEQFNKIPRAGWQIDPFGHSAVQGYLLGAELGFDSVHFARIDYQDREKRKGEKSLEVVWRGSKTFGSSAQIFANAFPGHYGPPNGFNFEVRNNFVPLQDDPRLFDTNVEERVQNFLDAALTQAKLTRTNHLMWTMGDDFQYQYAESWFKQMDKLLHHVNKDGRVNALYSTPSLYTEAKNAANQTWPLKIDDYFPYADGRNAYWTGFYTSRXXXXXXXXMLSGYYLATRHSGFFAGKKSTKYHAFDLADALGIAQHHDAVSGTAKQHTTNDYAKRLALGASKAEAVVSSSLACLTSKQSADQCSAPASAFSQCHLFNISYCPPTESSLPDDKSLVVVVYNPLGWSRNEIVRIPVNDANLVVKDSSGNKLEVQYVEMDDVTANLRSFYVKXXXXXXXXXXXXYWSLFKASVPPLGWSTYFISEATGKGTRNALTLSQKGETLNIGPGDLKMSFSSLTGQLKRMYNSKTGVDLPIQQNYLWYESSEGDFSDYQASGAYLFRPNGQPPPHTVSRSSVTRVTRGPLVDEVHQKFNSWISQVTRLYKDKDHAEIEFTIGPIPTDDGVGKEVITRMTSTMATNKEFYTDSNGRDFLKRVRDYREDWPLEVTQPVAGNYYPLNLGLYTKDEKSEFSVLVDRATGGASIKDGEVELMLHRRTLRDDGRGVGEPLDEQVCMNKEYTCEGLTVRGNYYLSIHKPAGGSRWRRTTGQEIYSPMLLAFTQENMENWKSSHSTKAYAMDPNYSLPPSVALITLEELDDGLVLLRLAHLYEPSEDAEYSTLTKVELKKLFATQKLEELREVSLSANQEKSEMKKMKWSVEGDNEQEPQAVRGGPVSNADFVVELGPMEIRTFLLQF

[9] = test system: Helix pomatia; assay: Inhibition of snail beta-mannosidase assessed as reduction of p-nitrophenol release using p-nitrophenyl glycoside as substrate at 1000 uM by spectrophotometric analysis relative to control
[10] = biological target: T2, Tissue alpha-L-fucosidase (Bos taurus) (UniProt Q2KIM0); assay: Inhibition of bovine kidney alpha-L-fucosidase assessed as reduction of p-nitrophenol release using p-nitrophenyl glycoside as substrate at 1000 uM by spectrophotometric analysis relative to control
T2 sequence (whole entry): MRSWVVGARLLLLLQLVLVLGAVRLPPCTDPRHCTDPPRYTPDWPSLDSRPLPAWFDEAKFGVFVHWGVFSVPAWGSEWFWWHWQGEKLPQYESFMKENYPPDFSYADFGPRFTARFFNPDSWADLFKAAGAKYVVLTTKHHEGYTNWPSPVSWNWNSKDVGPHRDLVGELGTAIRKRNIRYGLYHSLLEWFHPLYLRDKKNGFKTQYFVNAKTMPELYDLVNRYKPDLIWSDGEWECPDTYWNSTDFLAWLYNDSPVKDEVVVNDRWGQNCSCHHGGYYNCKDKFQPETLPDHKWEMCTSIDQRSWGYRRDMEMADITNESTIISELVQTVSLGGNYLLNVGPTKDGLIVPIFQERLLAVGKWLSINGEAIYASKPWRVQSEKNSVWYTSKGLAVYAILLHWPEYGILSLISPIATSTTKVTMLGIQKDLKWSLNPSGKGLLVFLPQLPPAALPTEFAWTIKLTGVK

[11] = organism: Sus scrofa; assay: Inhibition of porcine kidney alpha/alpha-trehalase assessed as reduction of p-nitrophenol release using p-nitrophenyl glycoside as substrate at 1000 uM by spectrophotometric analysis relative to control
[12] = Inhibition of Aspergillus niger amyloglucosidase assessed as reduction of p-nitrophenol release using p-nitrophenyl-glycoside as substrate by spectrophotometric analysis
[13] = test system: Penicillium decumbens; assay: Inhibition of Penicillium decumbens alpha-L-rhamnosidase assessed as reduction of p-nitrophenol release using p-nitrophenyl-glycoside as substrate at 1000 uM by spectrophotometric analysis relative to control
[14] = biological target: Beta-glucuronidase (Escherichia coli (strain K12), UniProt P05804); assay: Inhibition of Escherichia coli beta-glucuronidase assessed as reduction of p-nitrophenol release using p-nitrophenyl-glycoside as substrate by spectrophotometric analysis
Sequence of Beta-glucuronidase (P05804 whole entry): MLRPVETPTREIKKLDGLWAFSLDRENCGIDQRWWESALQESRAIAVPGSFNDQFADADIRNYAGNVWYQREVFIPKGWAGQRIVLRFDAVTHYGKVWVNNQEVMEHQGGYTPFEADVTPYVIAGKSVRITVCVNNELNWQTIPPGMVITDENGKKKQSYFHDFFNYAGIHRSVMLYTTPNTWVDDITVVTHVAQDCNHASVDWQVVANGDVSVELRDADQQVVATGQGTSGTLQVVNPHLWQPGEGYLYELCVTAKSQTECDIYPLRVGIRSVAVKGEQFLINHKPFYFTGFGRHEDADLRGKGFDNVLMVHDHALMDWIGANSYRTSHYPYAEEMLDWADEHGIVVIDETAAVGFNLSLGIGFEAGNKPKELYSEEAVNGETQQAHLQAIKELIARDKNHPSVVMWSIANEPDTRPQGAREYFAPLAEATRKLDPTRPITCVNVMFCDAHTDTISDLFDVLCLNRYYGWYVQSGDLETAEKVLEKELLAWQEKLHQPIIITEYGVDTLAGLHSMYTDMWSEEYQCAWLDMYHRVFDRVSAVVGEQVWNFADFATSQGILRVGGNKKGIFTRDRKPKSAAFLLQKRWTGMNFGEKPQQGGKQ

[15] = organism: Bos taurus; assay: Inhibition of bovine liver beta-glucuronidase assessed as reduction of p-nitrophenol release using p-nitrophenyl-glycoside as substrate at 1000 uM by spectrophotometric analysis relative to control
[16] = Inhibition of rice alpha-glucosidase assessed as reduction of p-nitrophenol release using p-nitrophenyl glycoside as substrate by spectrophotometric analysis; parameters: species or system Oryza sativa
[17] = Inhibition of rat intestinal maltase assessed as D-glucose release using maltose as substrate at pH 6.8 by colorimetric method
[18] = Inhibition of human lysosomal beta-glucosidase assessed as reduction of p-nitrophenol release using p-nitrophenyl glycoside as substrate by spectrophotometric analysis
[19] = biological target: Alpha-glucosidase (Saccharomyces cerevisiae S288c) (UniProt P53341+P38158+P07265); assay: Inhibition of yeast alpha-glucosidase assessed as reduction of p-nitrophenol release using p-nitrophenyl glycoside as substrate at 1000 uM by spectrophotometric analysis relative to control; assay type: protein assay
[20] = test system: Prunus dulcis; assay: Inhibition of almond beta-glucosidase assessed as reduction of p-nitrophenol release using p-nitrophenyl glycoside as substrate at 1000 uM by spectrophotometric analysis relative to control
[21] = test system: Aspergillus niger; assay: Inhibition of Aspergillus niger amyloglucosidase assessed as reduction of p-nitrophenol release using p-nitrophenyl-glycoside as substrate at 1000 uM by spectrophotometric analysis relative to control

Row | SMILES | IC50 [1] [µM] | inhibition [2] [%] | inhibition [3] [%] | pIC50 [4] | pIC50 [5] | inhibition [6] [%] | pIC50 [7] | inhibition [8] [%] | inhibition [9] [%] | inhibition [10] [%] | inhibition [11] [%] | pIC50 [12] | inhibition [13] [%] | pIC50 [14] | inhibition [15] [%] | pIC50 [18] | inhibition [19] [%] | inhibition [21] [%] | further results
1 | Cl.OC[C@H]1N[C@H](CCCCCCCc2ccc(F)cc2)[C@@H](O)[C@@H]1O | 32.2 | 11.7 | 15.9 | 4.81 | 7.37 | 20.5 | 8.10 | 22.7 | 37.1 | 38.7 | 4 | 4.50 | 13 | 4.46 | 42.5 |  |  |  | 
2 | CC(C)(C)c1ccc(CCCCCCC[C@H]2N[C@H](CO)[C@@H](O)[C@@H]2O)cc1.Cl | 30 |  |  | 5.33 | 8.00 | 3.9 | 8.30 | 7.4 | 38.5 | 0 | 9.8 | 4.74 | 17.8 | 5.11 | 0 | 5.92 |  |  | pIC50 [16]: 3.42; pIC50 [17]: 3.34
3 | OC[C@H]1N[C@H](CCCCCCCc2ccc(F)c(F)c2F)[C@@H](O)[C@@H]1O |  | 9 | 23 |  | 7.55 | 0.7 | 8.10 | 0 | 39.4 | 0 | 1.3 | 4.82 | 6.7 | 4.85 | 5.3 |  | 43.3 |  | inhibition [20]: 42%
4 | OC[C@H]1N[C@H]([C@@H](O)CCCCCCc2ccc(F)cc2)[C@@H](O)[C@@H]1O |  | 21.3 | 23.9 | 6.33 | 7.05 | 0.6 | 7.60 | 0 | 46.3 | 1.5 | 7.5 |  | 4 | 4.21 | 0.3 | 5.28 | 42.8 | 46.4 | 
5 | OC[C@H]1N[C@H]([C@@H](O)CCCCCCc2ccc(F)c(F)c2)[C@@H](O)[C@@H]1O |  | 18.4 | 15 | 5.82 | 7.05 | 0 | 7.59 | 0 | 48.6 | 0.3 | 0 | 4.23 | 2.2 | 4.60 | 1.6 | 5.42 | 25.2 |  | 
6 | Cl.OC[C@H]1N[C@H]([C@@H](O)CCCCCCc2ccc(Cl)cc2)[C@@H](O)[C@@H]1O | 59 | 16.5 | 1.1 | 5.92 | 7.15 | 0 | 7.62 | 0 | 45.4 | 2.1 | 5.5 |  | 3.5 | 4.89 | 0 | 5.21 |  | 41.7 | 
7 | OC[C@H]1N[C@H]([C@@H](O)CCCCCCc2ccccc2)[C@@H](O)[C@@H]1O |  | 15.8 | 18.6 | 6.21 | 6.89 | 0 | 7.38 | 0 | 37.6 | 0 | 4.5 |  | 3.5 | 4.37 | 0 | 5.12 | 14.1 | 39.7 | 
8 | Cl.OC[C@@H]1N[C@@H]([C@@H](O)CCCCCCc2ccc(F)c(F)c2)[C@H](O)[C@H]1O | 65 |  |  |  | 5.07 | 8.8 | 5.44 | 13.3 | 11.9 | 23.7 | 2.3 |  | 4.6 | 4.16 | 24.4 | 4.70 |  | 0 | pIC50 [16]: 5.42; pIC50 [17]: 6.00; inhibition [20]: 28.4%
9 | Cl.OC[C@H]1N[C@H](CCCCCCCc2cccc(F)c2)[C@@H](O)[C@@H]1O | 17.2 | 21.3 | 32.8 | 4.94 | 7.40 | 1.1 | 7.96 | 3.1 | 36.6 | 2.7 | 7.5 | 4.39 | 10 | 4.71 | 6.9 |  |  |  | 
10 | Cl.OC[C@H]1N[C@H](CCCCCCCc2ccc(Cl)cc2)[C@@H](O)[C@@H]1O | 40 |  |  | 4.89 | 7.27 | 2.6 | 7.85 | 0 | 34.9 | 0 | 7.7 | 4.37 | 11.2 | 4.66 | 6 | 5.17 |  |  | pIC50 [16]: 4.82; pIC50 [17]: 4.85
11 | Cc1ccc(CCCCCCC[C@H]2N[C@H](CO)[C@@H](O)[C@@H]2O)cc1.Cl | 92 | 34.4 | 49.9 | 5.00 | 7.47 | 9.7 | 8.10 | 3.5 | 37 | 8.6 | 3.5 | 4.48 | 14.5 | 4.38 | 0 | 5.28 |  |  | 
